Tested on: LPA1-initiated signaling in HER2-negative/PI3K//ERK/MEK/RAF/mTOR Wild-Type breast tumor cell samples
Test: impedance biosensor cell adhesion test, LPA1 agonist with RAS node inhibitors (Example 4)
Type: cell-based, human
Parameters: unit not given here
Source text: Tissue and cell samples: 28 HER2-negative/PI3K//ERK/MEK/RAF/mTOR Wild-Type breast tumor cell samples were studied. […] From these responses, the net amount of LPA1-initiated signaling involving PI3K-α, Class 1 PI3K-isoforms (pan-PI3K), Class 1 PI3K-isoforms and mTOR, Bcl-xL and Bcl-2, MEK, ERK, and RAF, individually and in combination, was quantified.
In this example, 14 of the 28 patient cell samples tested recorded output values with at least one of the targeted therapeutic(s) above 250. […] Five patients would be selected to receive treatment with gedatolisib, four would be selected to receive treatment with copanlisib, one patient would be selected to receive treatment with PLX7904, six patients would be selected to receive treatment with gedatolisib and PLX7904, seven patients would be selected to receive treatment with gedatolisib and ravoxertinib, nine patients would be selected to receive treatment with gedatolisib and trametinib, and 14 patients would be selected to receive treatment with gedatolisib and navitoclax.

[1] = sample C1838.01.155, cut-off 250
[2] = sample C1986.01.10, cut-off 250
[3] = sample C2090.01.14, cut-off 250
[4] = sample C2169.01.10, cut-off 250
[5] = sample C3091.01.13, cut-off 250
[6] = sample C3132.01.13, cut-off 250
[7] = sample C3311.01.10, cut-off 250
[8] = sample CL021.01.869, cut-off 250

Compound	output value (sample C1816.01.6, cut-off 250)	output value [1]	output value (sample C1918.01.5, cut-off 250)	output value [2]	output value [3]	output value (sample C2167.01.4, cut-off 250)	output value [4]	output value (sample C2483.01.6, cut-off 250)	output value (sample C2693.01.2, cut-off 250)	output value (sample C2697.01.4, cut-off 250)	output value (sample C2729.01.4, cut-off 250)	output value (sample C2748.01.4, cut-off 250)	output value (sample C2792.01.2, cut-off 250)	output value (sample C2794.01.9, cut-off 250)	output value (sample C2868.01.6, cut-off 250)	output value (sample C2991.01.7, cut-off 250)	output value [5]	output value (sample C3101.01.6, cut-off 250)	output value [6]	output value [7]	also measured
CCN(C)S(=O)(=O)Nc1ccc(F)c(C(=O)c2c[nH]c3ncc(-c4cnc(C5CC5)nc4)cc23)c1F [PLX7904]	158	−91	−5	−19	−38	22	14	67	−10	−2	−2	14	5	36	−12	53	50	262	22	−17	output value (sample C3337.01.6, cut-off 250): 58; output value (sample C3377.01.2, cut-off 250): −58; output value (sample C3507.01.5, cut-off 250): 46; output value (sample C3730.01.9, cut-off 250): −173; output value (sample C3873.01.4, cut-off 250): 89; output value (sample C3957.01.6, cut-off 250): −22; output value (sample C4005.01.2, cut-off 250): −22; output value [8]: 19
CN(C)C1CCN(C(=O)c2ccc(NC(=O)Nc3ccc(-c4nc(N5CCOCC5)nc(N5CCOCC5)n4)cc3)cc2)CC1 [gedatolisib]	84	50	206	101	137	132	242	130	86	103	103	72	137	38	79	396	204	149	65	216	output value (sample C3337.01.6, cut-off 250): 336; output value (sample C3377.01.2, cut-off 250): 113; output value (sample C3507.01.5, cut-off 250): 70; output value (sample C3730.01.9, cut-off 250): 494; output value (sample C3873.01.4, cut-off 250): 298; output value (sample C3957.01.6, cut-off 250): 74; output value (sample C4005.01.2, cut-off 250): 216; output value [8]: 353
Cn1nccc1Nc1nccc(-c2ccn([C@H](CO)c3ccc(Cl)c(F)c3)c(=O)c2)n1 [ravoxertinib]	96	108	65	26	48	7	14	12	−55	55	10	60	24	−24	−36	10	67	−12	−22	−67	output value (sample C3337.01.6, cut-off 250): 53; output value (sample C3377.01.2, cut-off 250): 0; output value (sample C3507.01.5, cut-off 250): −24; output value (sample C3730.01.9, cut-off 250): −300; output value (sample C3873.01.4, cut-off 250): 43; output value (sample C3957.01.6, cut-off 250): −5; output value (sample C4005.01.2, cut-off 250): 12; output value [8]: −226
CC(=O)Nc1cccc(-n2c(=O)n(C3CC3)c(=O)c3c(Nc4ccc(I)cc4F)n(C)c(=O)c(C)c32)c1 [trametinib]	29	31	65	161	19	−7	67	132	−60	72	26	79	48	−14	−43	−70	50	101	10	94	output value (sample C3337.01.6, cut-off 250): 113; output value (sample C3377.01.2, cut-off 250): 149; output value (sample C3507.01.5, cut-off 250): −29; output value (sample C3730.01.9, cut-off 250): −204; output value (sample C3873.01.4, cut-off 250): −72; output value (sample C3957.01.6, cut-off 250): 10; output value (sample C4005.01.2, cut-off 250): 36; output value [8]: −226
